For data set [1] the following is noted: buffer, pH 7.4.
Description: (§1) GSK_TB: GSK in-house hydrophobicity assay at pH7.4 (logD)
The subject of data set [2] is Mycobacterium tuberculosis H37Rv. Put plainly: microbe, parasite or virus in culture.
Description: GSK_TB: Intracellular minimum inhibitory concentration (MIC) H37Rv assay
The nature of data set [3]: physchem. The following applies: phosphate buffered saline, pH 7.4.
For data set [4] the following is noted: octanol/water.
Description: (§2) GSK_TB: GSK in-house hydrophobicity assay (logP)
Data set [5] is described as follows: physchem. The note with it: octanol/water.
Description: as §2
A short description of data set [6]: physchem. The following applies: buffer, pH 7.4.
Description: as §1

Structures are written as SMILES. Converted amounts (≈) assume the structure as drawn.

Regarding `CC(C)(C)c1ccc(-c2nnc(SCC(=O)OC3CCCCC3)o2)cc1`, the logD7.4 in data set [1] was 9.17. For the same molecule, the MIC90 in data set [2] worked out at 1.74 µM (≈ 0.651 µg/mL). The molecule further displayed a solubility (kinetic) in data set [3] of 1 µM (≈ 0.375 µg/mL). The logP in data set [4] is 9.65.
`CCN(CC)c1ccc(-c2nn3c(-c4n[nH]c5c4CCC5)nnc3s2)cc1` gave a logD7.4 in data set [1] of 5.44. This molecule also returned an MIC90 in data set [2] of 1.5 µM (≈ 0.569 µg/mL). The molecule further yielded a solubility (kinetic) in data set [3] of 1 µM (≈ 0.379 µg/mL). This molecule had a logP in data set [5] of 5.78.
As to `Cc1nn(Cc2ccccc2)c(Cl)c1C(=O)NC1CCCCCC1`, in data set [6], the logD came out at 6.75. The molecule further yielded an MIC90 in data set [2] of 5.2 µM (≈ 1.8 µg/mL). For the same molecule, the kinetic solubility in data set [3] was found to be 28 µM (≈ 9.68 µg/mL). In addition, the logP in data set [5] amounted to 7.04.
In the same order, the values of `Cc1ccc2nc(Cl)c(CNCc3cccs3)cc2c1` are 6.84, 7.59 µM (≈ 2.3 µg/mL), 44 µM (≈ 13.3 µg/mL) and 7.23.
The like results for `COc1ccc(-c2cncc(-c3cc(N4CCN(CCO)CC4)nc(-c4ccccc4)n3)c2)cc1` were, in that order, 5.91, 1.45 µM (≈ 0.676 µg/mL), 1 µM (≈ 0.468 µg/mL) and 6.34.

By kinetic solubility is commonly meant solubility judged after dilution from a stock solution rather than from solid. One may read the logP as a log measure of how a compound divides between an organic and an aqueous phase. The logD is the decadic logarithm of the distribution of all forms, ionised or not, between an organic phase and buffer at a given pH. Low readings indicate lower lipophilicity, high ones higher lipophilicity.

For the origin of these results see ChEMBL document CHEMBL2095176, “GSK Tuberculosis Screening Data”.
